# According to patent US9416115B2, “Fused heterocyclic compounds as ion channel modulators” (Gilead Sciences, Inc., priority 2013, dated 2016):
# Biological target: T1, wild-type human cardiac sodium channel, hNav1.5 (Homo sapiens, UniProt Q14524)
# Assay: Peak INa screening assay (tonic block and use-dependent block)
# Format: cell-based
# Details: tonic block of Peak INa, 0.1 Hz, holding -100 mV, read-out: Peak TB 3 uM
# Experimental: (§1) The cardiac late sodium current (Late INa) and peak sodium current (Peak INa) assays are performed on an automated electrophysiology platform, QPatch 16X or QPatch HT (Sophion Bioscience, Copenhagen, Denmark) using the whole cell patch clamp technique to measure currents through the cell membrane. The assay uses an HEK293 (human embryonic kidney) cell line heterologously expressing the wild-type human cardiac sodium channel, hNav1.5, purchased from Millipore (Billerica, Mass.). No beta subunits were coexpressed with the Na channel alpha subunit. Cells are maintained with standard tissue culture procedures and stable channel expression is maintained with 400 μg/mL Geneticin in the culture medium. Experiments are carried out at 23-25° C.
# (§2) For both the Late INa and Peak INa assays, series resistance compensation is set to 100% and series resistance and whole-cell compensation are performed automatically. Currents are digitized at 25 kHz and low-pass filtered at 5 kHz and stored in the Sophion Bioscience Oracle database (Sophion Bioscience, Copenhagen, Denmark). Analysis is performed using QPatch Assay software and data are compiled in Excel 2010 (Microsoft, Seattle, Wash., U.S.A.).
# (§3) Compound stocks are routinely made by the Gilead Sample Bank in vials to 10 mM in dimethyl sulfoxide (DMSO). In some cases, when compounds are not soluble in DMSO, they are made in 100% ethanol. Stocks are sonicated as necessary. The extracellular solution for screening Late INa is composed of: 140 mM NaCl, 4 mM KCl, 1.8 mM CaCl2, 1 mM MgCl2, 10 mM HEPES and 10 mM Dextrose with pH adjusted to 7.35 using NaOH. The intracellular solution contains: 105 mM CsF, 20 mM CsCl, 10NaF, 2 mM EGTA, 10 mM HEPES and 10 mM Dextrose with pH adjusted to 7.35 with CsOH. Compounds are diluted in extracellular solution using a MicroLab Nimbus (Hamilton Robotics, Reno, Nev.) to between 0.3 and 3 μM in glass vials and transferred to glass well plates before robotic addition to the cells. The 0 mM Na extracellular solution (0Na-ECF) used at the end of each experiment for the Late INa and Peak INa assays to measure baseline current contains: 140 Choline-Cl; 4 mM KCl, 1.8 mM CaCl2; 1 mM MgCl2; 10 mM HEPES and 10 mM Dextrose with pH was adjusted to 7.35 with CsOH.
# Compounds were evaluated for their effect Nav1.5 Peak INa. It is contemplated that the compounds of Formula I avoid significant block of peak INa. Since the peak INa in the cells used herein can be very large, introducing artifacts in the recording, the concentration of Na^+ in the bath can be reduced to 40 mM by isosmotic replacement of Na^+ with Choline (see below).
# Tonic Block (TB) of Peak INa was measured using a voltage step to −20 mV from a holding potential of −100 mV at a low stimulation frequency of 0.1 Hz. Use-Dependent Block (UDB) of Peak INa was measured during pulse number 50 of a pulse train (−20 mV, 20 ms, 50 pulses, 3 Hz) from a holding potential of −100 mV.
# The extracellular solution for screening Peak INa is composed of: 40 mM NaCl, 100 mM Choline-Cl, 4 mM KCl, 1.8 mM CaCl2, 1 mM MgCl2 10 mM HEPES and 10 mM Dextrose with pH adjusted to 7.35 using NaOH. The intracellular solution used for the Peak INa assay is the same as outlined for the Late INa assay (see above).
# After establishing the whole cell recording configuration, channels were stimulated to open with low frequency (0.1 Hz) so that the recording can be monitored and the extent to which the recording has stabilized can be assessed.
# The test compound is then applied at 1 or 3 μM and was added 2 times at 60 second intervals. After the second compound addition, a 200 second wait period was imposed to allow for equilibration. Voltage protocols for TB and UDB are were performed in the absence and presence of compound and TB and UDB are calculated with respect to the compound free condition. Both TB and UDB were analyzed by incorporating rundown correction for the peak INa.
# T1 sequence (Q14524 whole entry): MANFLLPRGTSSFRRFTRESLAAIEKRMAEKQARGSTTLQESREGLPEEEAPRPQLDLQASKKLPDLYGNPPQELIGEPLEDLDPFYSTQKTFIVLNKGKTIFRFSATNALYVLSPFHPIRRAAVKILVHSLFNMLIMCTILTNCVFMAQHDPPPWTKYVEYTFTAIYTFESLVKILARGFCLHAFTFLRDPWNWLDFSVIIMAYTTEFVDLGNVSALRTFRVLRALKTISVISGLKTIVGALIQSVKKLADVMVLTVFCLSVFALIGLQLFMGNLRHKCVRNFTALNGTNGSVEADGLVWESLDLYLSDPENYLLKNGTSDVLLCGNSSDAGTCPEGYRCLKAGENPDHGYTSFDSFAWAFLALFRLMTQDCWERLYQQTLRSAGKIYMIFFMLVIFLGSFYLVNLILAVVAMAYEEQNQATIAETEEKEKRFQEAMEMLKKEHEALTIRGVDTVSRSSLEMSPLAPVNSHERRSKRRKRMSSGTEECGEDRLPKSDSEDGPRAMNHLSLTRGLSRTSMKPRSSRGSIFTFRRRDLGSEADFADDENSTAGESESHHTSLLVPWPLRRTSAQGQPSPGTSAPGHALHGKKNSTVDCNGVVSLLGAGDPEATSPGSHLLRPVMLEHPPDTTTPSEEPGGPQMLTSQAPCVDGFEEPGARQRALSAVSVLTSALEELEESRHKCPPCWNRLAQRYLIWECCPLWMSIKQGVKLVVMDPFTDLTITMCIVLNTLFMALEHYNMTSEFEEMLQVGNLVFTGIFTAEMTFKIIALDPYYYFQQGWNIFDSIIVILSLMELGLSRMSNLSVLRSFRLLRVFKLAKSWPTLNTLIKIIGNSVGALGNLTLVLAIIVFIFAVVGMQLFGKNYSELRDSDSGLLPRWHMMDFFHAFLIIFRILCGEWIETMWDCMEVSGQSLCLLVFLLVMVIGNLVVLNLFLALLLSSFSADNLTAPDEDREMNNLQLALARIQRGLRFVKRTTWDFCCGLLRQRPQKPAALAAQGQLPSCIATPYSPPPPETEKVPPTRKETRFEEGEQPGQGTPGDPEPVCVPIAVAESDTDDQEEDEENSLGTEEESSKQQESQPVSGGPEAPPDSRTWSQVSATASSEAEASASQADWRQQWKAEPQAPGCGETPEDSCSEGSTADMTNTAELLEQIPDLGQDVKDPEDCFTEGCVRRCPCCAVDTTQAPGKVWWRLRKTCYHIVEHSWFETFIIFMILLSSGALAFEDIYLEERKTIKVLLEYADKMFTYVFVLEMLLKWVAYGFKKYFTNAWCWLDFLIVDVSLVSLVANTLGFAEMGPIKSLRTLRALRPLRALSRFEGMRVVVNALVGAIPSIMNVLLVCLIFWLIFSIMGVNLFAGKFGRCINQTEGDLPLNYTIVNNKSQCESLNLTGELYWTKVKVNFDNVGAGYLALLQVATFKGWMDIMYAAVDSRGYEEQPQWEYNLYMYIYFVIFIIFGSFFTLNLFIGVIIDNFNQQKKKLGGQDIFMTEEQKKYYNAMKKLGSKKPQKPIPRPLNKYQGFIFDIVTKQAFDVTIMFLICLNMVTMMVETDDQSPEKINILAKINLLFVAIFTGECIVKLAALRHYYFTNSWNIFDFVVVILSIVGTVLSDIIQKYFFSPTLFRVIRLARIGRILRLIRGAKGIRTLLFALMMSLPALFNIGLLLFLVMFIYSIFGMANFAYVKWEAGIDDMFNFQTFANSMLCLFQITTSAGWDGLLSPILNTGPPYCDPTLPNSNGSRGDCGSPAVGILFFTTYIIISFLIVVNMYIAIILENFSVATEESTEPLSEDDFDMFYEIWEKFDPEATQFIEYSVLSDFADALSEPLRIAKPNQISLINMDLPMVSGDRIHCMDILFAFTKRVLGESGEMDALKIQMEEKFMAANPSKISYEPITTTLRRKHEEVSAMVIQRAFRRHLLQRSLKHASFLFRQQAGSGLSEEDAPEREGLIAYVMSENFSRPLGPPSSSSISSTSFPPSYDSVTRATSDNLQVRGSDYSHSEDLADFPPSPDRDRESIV
row,Compound,inhibition at 3 µM [%]
1,"Fc1cc(OC(F)(F)F)ccc1-c1ccc2onc(OCc3ncccn3)c2c1 [Example 2, 5-(2-fluoro-4-(trifluoromethoxy)phenyl)-3-(pyrimidin-2-ylmethoxy)benzo[d]isoxazole]",66.1

# Same assay, conditions: use-dependent block of Peak INa, 3 Hz, pulse 50, read-out: Peak UDB 3 Hz 3 uM
row,Compound,inhibition at 3 µM [%]
1,"Fc1cc(OC(F)(F)F)ccc1-c1ccc2onc(OCc3ncccn3)c2c1 [Example 2, 5-(2-fluoro-4-(trifluoromethoxy)phenyl)-3-(pyrimidin-2-ylmethoxy)benzo[d]isoxazole]",27.9

# Biological target: T1, wild-type human cardiac sodium channel, hNav1.5
# Assay: Late INa screening assay (QPatch whole cell patch clamp, Tefluthrin-induced late current)
# Format: cell-based
# Details: 1 uM; HEK293 hNav1.5; percent block of late INa
# Experimental: as §1, §2, §3
# For the Late INa assay, sodium channels are activated every 10 seconds (0.1 Hz) by depolarizing the cell membrane to −20 mV for 250 milliseconds (ms) from a holding potential of −120 mV.
# Compounds were tested to determine their activity in blocking the late sodium current. Late INa was generated by adding 10 μM Tefluthrin (pyrethroid) to the extracellular solution. For the purposes of the screening, Late INa is defined as the mean current between […] during the voltage step to −20 mV. After establishing the whole cell recording configuration, Late INa activator is added to each well 4 times over a 15 minute period so that the late component of the Na current reaches a stable value. Compounds were then added (typically at 0.3 or 1 μM), in the presence of the Late Na^+ activator, with 3 additions over the course of 5 minutes. Measurements were made at the end of exposure to the third compound addition and values were normalized to the current level when all Na^+ was removed from the extracellular solution after two additions of 0Na-ECF.
# Results are reported as percent block of late INa and results were analyzed by incorporating rundown correction for the Late INa.
row,Compound,inhibition at 1 µM [%]
1,"COc1ccnc(COc2noc3c(C)cc(-c4ccc(OC(F)(F)F)cc4)cc23)n1 [Example 90, 3-((4-methoxypyrimidin-2-yl)methoxy)-7-methyl-5-(4-(trifluoromethoxy)phenyl)benzo[d]isoxazole]",20.9
2,"FC(F)(F)Oc1ccc(-c2ccc3onc(OCc4nccc(N5CCOCC5)n4)c3c2)cc1 [Example 70, 3-((4-morpholinopyrimidin-2-yl)methoxy)-5-(4-(trifluoromethoxy)phenyl)benzo[d]isoxazole]",25.5
3,"COc1cc2onc(OCc3ncccn3)c2cc1-c1ccc(OC(F)(F)F)cc1 [Example 11, 6-methoxy-3-(pyrimidin-2-ylmethoxy)-5-(4-(trifluoromethoxy)phenyl)benzo[d]isoxazole]",30
4,"Fc1cc(-c2ccc(OC(F)(F)F)cc2)cc2c(OCCn3cncn3)noc12 [Example 84, 3-(2-(1H-1,2,4-triazol-1-yl)ethoxy)-7-fluoro-5-(4-(trifluoromethoxy)phenyl)benzo[d]isoxazole]",23.6
5,"FC(F)(F)Oc1ccc(-c2ccc3onc(OCc4c[nH]nn4)c3c2)cc1 [Example 83, 3-((1H-1,2,3-triazol-4-yl)methoxy)-5-(4-(trifluoromethoxy)phenyl)benzo[d]isoxazole]",23.7
6,"Cc1cccc(COc2noc3c(C)cc(-c4ccc(OC(F)(F)F)cc4)cc23)n1 [Example 106, 7-methyl-3-((6-methylpyridin-2-yl)methoxy)-5-(4-(trifluoromethoxy)phenyl)benzo[d]isoxazole]",28.3
7,"FC(F)(F)Oc1ccc(-c2ccc3onc(OCc4cnn(-c5ccccn5)c4)c3c2)cc1 [Example 65, 3-((1-(pyridin-2-yl)-1H-pyrazol-4-yl)methoxy)-5-(4-(trifluoromethoxy)phenyl)benzo[d]isoxazole]",27
8,"Cc1cc(-c2cc3c(OCc4ncccn4)noc3cc2F)ccc1OC(F)(F)F [Example 32, 6-fluoro-5-(3-methyl-4-(trifluoromethoxy)phenyl)-3-(pyrimidin-2-ylmethoxy)benzo[d]isoxazole]",28.8
9,"FC(F)(F)Oc1ccc(-c2ccc3onc(OCCc4ncc[nH]4)c3c2)cc1 [Example 66, 3-(2-(1H-imidazol-2-yl)ethoxy)-5-(4-(trifluoromethoxy)phenyl)benzo[d]isoxazole]",21.9
10,"N#CCC1(COc2noc3ccc(-c4ccc(OC(F)(F)F)cc4)cc23)CC1 [Example 54, 2-(1-(((5-(4-(trifluoromethoxy)phenyl)benzo[d]isoxazol-3-yl)oxy)methyl)cyclopropyl)acetonitrile]",29.2
11,"CC(C)Nc1noc2ccc(-c3ccc(OC(F)(F)F)cc3)cc12 [Example 131, N-isopropyl-5-(4-(trifluoromethoxy)phenyl)benzo[d]isoxazol-3-amine]",24.8
12,"FC(F)(F)Oc1ccc(-c2ccc3onc(OCc4nccc(C(F)(F)F)n4)c3c2)cc1 [Example 86, 5-(4-(trifluoromethoxy)phenyl)-3-((4-(trifluoromethyl)pyrimidin-2-yl)methoxy)benzo[d]isoxazole]",21.9
13,"Cc1cc(-c2cccc(OC(F)(F)F)c2)cc2c(OCc3ncccn3)noc12 [Example 19, 7-methyl-3-(pyrimidin-2-ylmethoxy)-5-(3-(trifluoromethoxy)phenyl)benzo[d]isoxazole]",27.5
14,"Cc1cc(C)n(CCOc2noc3ccc(-c4ccc(OC(F)(F)F)cc4)cc23)n1 [Example 69, 3-(2-(3,5-dimethyl-1H-pyrazol-1-yl)ethoxy)-5-(4-(trifluoromethoxy)phenyl)benzo[d]isoxazole]",29.6
15,"O=S1(=O)CCN(CCOc2noc3ccc(-c4ccc(OC(F)(F)F)cc4)cc23)CC1 [Example 85, 4-(2-((5-(4-(trifluoromethoxy)phenyl)benzo[d]isoxazol-3-yl)oxy)ethyl)thiomorpholine 1,1-dioxide]",22.5
16,"Cc1nccn1-c1noc2ccc(-c3ccc(OC(F)(F)F)cc3)cc12 [Example 138, 3-(2-methyl-1H-imidazol-1-yl)-5-(4-(trifluoromethoxy)phenyl)benzo[d]isoxazole]",29.8
17,"Fc1cc(OC(F)(F)F)ccc1-c1ccc2onc(OCc3ncccn3)c2c1 [Example 2, 5-(2-fluoro-4-(trifluoromethoxy)phenyl)-3-(pyrimidin-2-ylmethoxy)benzo[d]isoxazole]",54.6
18,"c1cnc(COc2noc3ccc(-c4ccc(C5CC5)nc4)cc23)nc1 [Example 20, 5-(6-cyclopropylpyridin-3-yl)-3-(pyrimidin-2-ylmethoxy)benzo[d]isoxazole]",28.8
19,"O=C1CC[C@@H](COc2noc3ccc(-c4ccc(OC(F)(F)F)cc4)cc23)N1 [Example 62, (S)-5-(((5-(4-(trifluoromethoxy)phenyl)benzo[d]isoxazol-3-yl)oxy)methyl)pyrrolidin-2-one]",28.4
20,"FC(F)(F)Oc1ccc(-c2ccc3onc(OCc4cc5ccccc5cn4)c3c2)cc1 [Example 82, 3-(isoquinolin-3-ylmethoxy)-5-(4-(trifluoromethoxy)phenyl)benzo[d]isoxazole]",28.1
21,"Cc1cc(OC(F)(F)F)ccc1-c1cc2c(OCc3ncccn3)noc2cc1F [Example 34, 6-fluoro-5-(2-methyl-4-(trifluoromethoxy)phenyl)-3-(pyrimidin-2-ylmethoxy)benzo[d]isoxazole]",21
22,"Cc1nc(COc2noc3ccc(-c4ccc(OC(F)(F)F)cc4)cc23)c(C)o1 [Example 52, 3-((2,5-dimethyloxazol-4-yl)methoxy)-5-(4-(trifluoromethoxy)phenyl)benzo[d]isoxazole]",24.3
23,"O=C1CC[C@H](CNc2noc3ccc(-c4ccc(OC(F)(F)F)cc4)cc23)N1 [Example 134, (R)-5-(((5-(4-(trifluoromethoxy)phenyl)benzo[d]isoxazol-3-yl)amino)methyl)pyrrolidin-2-one]",21.1
24,"Cn1cnc(COc2noc3ccc(-c4ccc(OC(F)(F)F)cc4)cc23)c1 [Example 43, 3-((1-methyl-1H-imidazol-4-yl)methoxy)-5-(4-(trifluoromethoxy)phenyl)benzo[d]isoxazole]",27.1
